# Measured values reported in US20220175820A1 (PIERRE FABRE DERMO-COSMETIQUE, priority 2019, published 2022).
# Marks after values point to notes of the source that are not given here.
# Tests used:
# [1] = tested on: transcription factor NFκB; experiment: NFκB activation stimulated by TNFα in HaCat keratinocytes with luciferase reporter gene; assay type: cell-based, human; settings: TNFα 0.3 ng/ml; for NFκB activation % Inh / NFκB activation RLU Mean: 5 hours
# Description: The cell line used in this study is the HaCat line (human keratinocytes) stably transfected with the luciferase reporter gene.
# These cells are cultured on 24-well plates under the same conditions as in Example 1. They are then preincubated for 60 minutes with the products to be tested, added to the culture medium in the form of a solution in water. A stimulant, TNFα (0.3 ng/ml, diluted in culture medium) is added to the cultures which are then incubated for 5 hours at 37° C. […] A positive control is used in this test, dexamethasone (synthetic glucocorticoid hormone, with an antiinflammatory and immunosuppressant effect, added to the culture medium in the form of a solution in water) tested at 2 μM in the culture medium. Note that 3 independent experiments were conducted. The Bright-Glo™ agent (which induces cell lysis and thus enables luciferase release) and its substrate (luciferin) are added before reading the luminescence. The raw data are analyzed by Excel. The intergroup comparison is performed by one-way ANOVA followed by Dunnett's post-hoc test.
# [2] = tested on: prostaglandin PG6KF1α production, HaCat line (human keratinocytes); experiment: PG6KF1α release by HaCat keratinocytes stimulated with calcium ionophore A23187 (ELISA); assay type: cell-based; settings: A23187 5 μM 5 h
# Description: The cell line used in this study is the HaCat line (human keratinocytes).
# The cells are cultured in DMEM (Dulbecco's Modified Eagle Medium) supplemented with foetal calf serum in an environment at 37° C. and 5% CO2 on 24-well plates. They are then preincubated for 60 minutes, still at 37° C., with the products to be tested dissolved in water. A stimulant the arachidonic acid pathway is added for 5 hours. This is the stimulation phase; the stimulant is the calcium ionophore A23187 (solution in 0.01% DMSO) used at 5 μM. […] After 5 hours of stimulation, still in the same medium, the culture supernatant of each well is drawn off, centrifuged at 3000 RPM then stored at −20° C. The production of prostaglandin PG6KF1α in culture supernatant is measured with the Euromedex Elisa kit according to the supplier's instructions. Statistical analysis is performed by ANOVA followed by Dunnett's post-hoc test. Note that 3 independent experiments were conducted. The results for each product and for each dose are averaged from measurements performed on 3 wells. Thus, the control group (with no stimulant) makes it possible to quantify basal PG6KF1α production.
# [3] = tested on: TSLP; experiment: TSLP production by stimulated normal human epidermal keratinocytes (atopic dermatitis model, ELISA); assay type: cell-based; settings: Poly I:C, PamC3, IL-4, IL-13
# Description: (§1) The study is performed on normal human epidermal keratinocytes cultured under standard conditions (37° C., 5% CO2). The culture medium is standard (keratinocyte-SFM supplemented with 0.25 ng/ml epidermal growth factor (EGF), 25 μg/ml pituitary extract and 25 μg/ml gentamycin). The test medium is the same without growth factor.
# (§2) To simulate an atopic dermatitis environment, keratinocytes are preincubated for 1 hour in the medium with or without (control) the compounds to be tested, the vehicle (water) or the positive control, bafilomycin (macrolide family) at 30 nM. […] After this preincubation, keratinocytes are stimulated for 24 hours by a mixture of TLR ligands (Poly I:C and PamC3) and inflammatory cytokines (IL-4 and IL-13) added to the cells. An unstimulated control condition is also done at the same time. The cells are incubated for 24 hours.
# (§3) The culture supernatants are collected, centrifuged and frozen at −80° C. TSLP and IL-8 are quantified by ELISA.
# (§4) Three independent experiments are conducted. Statistical analysis is determined by one-way ANOVA followed by Dunnett's post-hoc test.
# [4] = tested on: IL-8; experiment: IL-8 production by stimulated normal human epidermal keratinocytes (atopic dermatitis model, ELISA); assay type: cell-based; settings: Poly I:C, PamC3, IL-4, IL-13
# Description: as §1, §2, §3, §4
# [5] = pH ranging from 4 to 10 at ambient temperature; cited from earlier work
# [6] = natural dextran sulfate 9000-20000 Da (Dextralip) 10 μg/ml
# [7] = natural dextran sulfate 9000-20000 Da (Dextralip) 30 μg/ml
# [8] = natural dextran sulfate 9000-20000 Da (Dextralip) 100 μg/ml
# [9] = natural dextran sulfate 9000-20000 Da (Dextralip) 300 μg/ml
# [10] = natural dextran sulfate 9000-20000 Da (Dextralip) 1000 μg/ml
# [11] = natural dextran sulfate 9000-20000 Da (Dextralip) 3000 μg/ml
# [12] = synthetic dextran sulfate 4000-8000 Da 10 μg/ml
# [13] = synthetic dextran sulfate 4000-8000 Da 30 μg/ml
# [14] = synthetic dextran sulfate 4000-8000 Da 100 μg/ml
# [15] = synthetic dextran sulfate 4000-8000 Da 300 μg/ml
# [16] = synthetic dextran sulfate 4000-8000 Da 1000 μg/ml
# [17] = synthetic dextran sulfate 4000-8000 Da 3000 μg/ml
# [18] = natural dextran sulfate (Dextralip, 9000-20000 Da) 0.3 mg/ml
# [19] = natural dextran sulfate (Dextralip, 9000-20000 Da) 1 mg/ml
# [20] = natural dextran sulfate (Dextralip, 9000-20000 Da) 3 mg/ml
# [21] = dextran sulfate (Dextralip, 9000-20000 Da) 0.3 μg/ml
# [22] = dextran sulfate (Dextralip, 9000-20000 Da) 0.3 μg/ml, listed as dextran sulfate
# [23] = dextran sulfate (Dextralip, 9000-20000 Da) 3 μg/ml
# [24] = dextran sulfate (Dextralip, 9000-20000 Da) 30 μg/ml
compound,measurement,setting,value
"C[C@@H]1C[C@H]2[C@@H]3CCC4=CC(=O)C=C[C@]4(C)[C@@]3(F)[C@@H](O)C[C@]2(C)[C@@]1(O)C(=O)CO [Dexa, dexamethasone, reference compound]",inhibition at 2 µM,"[1]; Homo sapiens, HaCaT, 5 h, dexamethasone 2 μM, read-out: NFκB activation % Inh",> 40%
same,NFκB activation % Inh,[1]; dexamethasone 2 μM,41%
same,NFκB activation RLU Mean,[1]; dexamethasone 2 μM,14206 RLU
Sodium dextran sulphate [Dextran sulfate],PG6KF1α % Inh,[2]; [6],36%
same,PG6KF1α (pg/ml) Mean,[2]; [6],1878.6 pg/mL
same,PG6KF1α % Inh,[2]; [7],23%
same,PG6KF1α (pg/ml) Mean,[2]; [7],2113.4 pg/mL
same,PG6KF1α % Inh,[2]; [8],14%
same,PG6KF1α (pg/ml) Mean,[2]; [8],2287.5 pg/mL
same,PG6KF1α % Inh,[2]; [9],32%
same,PG6KF1α (pg/ml) Mean,[2]; [9],1950.9 pg/mL
same,PG6KF1α % Inh,[2]; [10],43%
same,PG6KF1α (pg/ml) Mean,[2]; [10],1737.6 pg/mL
same,PG6KF1α % Inh,[2]; [11],37%
same,PG6KF1α (pg/ml) Mean,[2]; [11],1843.8 pg/mL
same,PG6KF1α % Inh,[2]; [12],35%
same,PG6KF1α (pg/ml) Mean,[2]; [12],1536.5 pg/mL
same,PG6KF1α % Inh,[2]; [13],23%
same,PG6KF1α (pg/ml) Mean,[2]; [13],1719.7 pg/mL
same,PG6KF1α % Inh,[2]; [14],14%
same,PG6KF1α (pg/ml) Mean,[2]; [14],1848.5 pg/mL
same,PG6KF1α % Inh,[2]; [15],29%
same,PG6KF1α (pg/ml) Mean,[2]; [15],1626.6 pg/mL
same,PG6KF1α % Inh,[2]; [16],40%
same,PG6KF1α (pg/ml) Mean,[2]; [16],1462.5 pg/mL
same,PG6KF1α % Inh,[2]; [17],39%
same,PG6KF1α (pg/ml) Mean,[2]; [17],1486.2 pg/mL
same,NFκB activation % Inh,[1]; [18],does not reduce NFκB activation
same,NFκB activation RLU Mean,[1]; [18],27024 RLU
same,NFκB activation % Inh,"[1]; natural dextran sulfate (Dextralip, 9000-20000 Da) 0.3 mg/ml, listed as Dex S.",−13%
same,NFκB activation % Inh,[1]; [19],does not reduce NFκB activation
same,NFκB activation RLU Mean,[1]; [19],23229 RLU
same,NFκB activation % Inh,"[1]; natural dextran sulfate (Dextralip, 9000-20000 Da) 1 mg/ml, listed as Dex S.",3%
same,NFκB activation % Inh,[1]; [20],42%
same,NFκB activation RLU Mean,[1]; [20],13836 RLU
same,TSLP production at 24 h % Inh,[3]; [21],0%
same,TSLP production at 24 h Mean,[3]; [21],247 pg/mL
same,TSLP production at 24 h % Inh,[3]; [22],does not induce reduction in TSLP production
same,TSLP production at 24 h % Inh,[3]; [23],90%
same,TSLP production at 24 h Mean,[3]; [23],34 pg/mL
same,TSLP production at 24 h % Inh,[3]; [24],96%
same,TSLP production at 24 h Mean,[3]; [24],19 pg/mL
same,Production of IL-8 at 24 h % Inh,[4]; [21],0%
same,Production of IL-8 at 24 h Mean,[4]; [21],63672 pg/mL
same,Production of IL-8 at 24 h % Inh,[4]; [22],not sufficient to inhibit IL-8 production
same,Production of IL-8 at 24 h % Inh,[4]; [23],82** %
same,Production of IL-8 at 24 h Mean,[4]; [23],10837 pg/mL
same,Production of IL-8 at 24 h % Inh,"[4]; dextran sulfate (Dextralip, 9000-20000 Da) 3 μg/ml, listed as dextran sulfate",more than 80%
same,Production of IL-8 at 24 h % Inh,[4]; [24],100%
same,Production of IL-8 at 24 h Mean,[4]; [24],170 pg/mL
same,stability in solutions,[5],high stability
